Results published in PubChem BioAssay AID330 (DTP/NCI, 2004).
“And” between values parts separate entries of the source, which are not always exact repeats. Equal values may be shown once. Toxic doses and inconclusive results are not listed.

Tested on: P388 leukemia ip, CD2F1 mice, survival T/C
Assay: NCI In Vivo Anticancer Drug Screen. Data for tumor model P388 Leukemia (intraperitoneal) in CD2F1 (CDF1) mice
Conditions: endpoint: median survival time, higher = longer survival
How it was run: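 Mice carrying the transplanted tumor received test compound or vehicle. Survival was recorded in each group, and the value is the treated-group measurement divided by that of the vehicle-treated control group.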

[1] = dose: 50.0 mg/kg/injection, schedule: Q01DX005 (ip), vehicle: Klucel (hydroxypropylcellulose) (HPC)
[2] = dose: 100.0 mg/kg/injection, schedule: Q01DX005 (ip), vehicle: Klucel (hydroxypropylcellulose) (HPC)
[3] = dose: 200.0 mg/kg/injection, schedule: Q01DX005 (ip), vehicle: Klucel (hydroxypropylcellulose) (HPC)
[4] = dose: 50.0 mg/kg/injection, schedule: Q01DX009 (ip), vehicle: saline with Tween-80
[5] = dose: 100.0 mg/kg/injection, schedule: Q01DX009 (ip), vehicle: saline with Tween-80
[6] = dose: 25.0 mg/kg/injection, schedule: Q01DX009 (ip), vehicle: saline
[7] = dose: 50.0 mg/kg/injection, schedule: Q01DX009 (ip), vehicle: saline
[8] = dose: 100.0 mg/kg/injection, schedule: Q01DX009 (ip), vehicle: saline
[9] = dose: 200.0 mg/kg/injection, schedule: Q01DX009 (ip), vehicle: saline
[10] = dose: 200.0 mg/kg/injection, schedule: Q01DX009 (ip), vehicle: saline with Tween-80
[11] = dose: 50.0 mg/kg/injection, schedule: Q01DX005 (ip), vehicle: saline
[12] = dose: 60.0 mg/kg/injection, schedule: Q01DX005 (ip), vehicle: Klucel (hydroxypropylcellulose) (HPC)

For CCOc1c(N=Nc2ccc(Cl)cc2Cl)c(C)nn1C(=S)S, the T/C (dose: 60.0 mg/kg/injection, schedule: Q01DX005 (ip), vehicle: Klucel + Tween-80) was 90 % of control, the T/C (dose: 120.0 mg/kg/injection, schedule: Q01DX005 (ip), vehicle: Klucel + Tween-80) was 103 % of control and the T/C (dose: 240.0 mg/kg/injection, schedule: Q01DX005 (ip), vehicle: Klucel + Tween-80) was 100 % of control.
In the case of NC(=O)C(=O)c1c(-c2ccccc2)c(-c2ccccc2)c2n1CCC2, the T/C [1] is reported as 100 % of control, the T/C [2] is reported as 99 % of control and the T/C [3] is reported as 93 % of control.
CCN(CC)CC(=O)Nc1ccc2c(c1)C(=O)c1ccc(NC(=O)CN(CC)CC)cc1C2=O was tested, and the T/C [1] was 90 % of control, the T/C (dose: 50.0 mg/kg/injection, schedule: Q01DX005 (ip), vehicle: acid diluted with saline) was 100 % of control and the T/C [2] was 93 % of control. The T/C (dose: 100.0 mg/kg/injection, schedule: Q01DX005 (ip), vehicle: acid diluted with saline) was 103 % of control, the T/C [3] was 90 % of control and the T/C (dose: 200.0 mg/kg/injection, schedule: Q01DX005 (ip), vehicle: acid diluted with saline) was 106 % of control.
With CC1(C)OOC(C)(O)C1Br (stereo not drawn) the T/C (dose: 50.0 mg/kg/injection, schedule: Q04DX003 (ip), vehicle: saline) was 95 % of control, the T/C (dose: 100.0 mg/kg/injection, schedule: Q04DX003 (ip), vehicle: saline) was 103 % of control and the T/C (dose: 200.0 mg/kg/injection, schedule: Q04DX003 (ip), vehicle: saline) was 95 % of control.
With COC(=O)C(C)c1[nH]c2ccccc2c1[Se]c1ccccc1 (stereo not drawn) the T/C (dose: 100.0 mg/kg/injection, schedule: Q01DX001 (ip), vehicle: saline with Tween-80) was 102 % of control, the T/C (dose: 200.0 mg/kg/injection, schedule: Q01DX001 (ip), vehicle: saline with Tween-80) was 106 % of control and the T/C (dose: 400.0 mg/kg/injection, schedule: Q01DX001 (ip), vehicle: saline with Tween-80) was 94 % of control.
In the case of COC1/C=C\OC2(C)Oc3c(C)c(O)c4c(O)c(c(/C=N/N(Cc5ccccc5)C56CC7CC(CC(C7)C5)C6)c(O)c4c3C2=O)NC(=O)/C(C)=C\C=C\C(C)C(O)C(C)C(O)C(C)C(OC(C)=O)C1C (stereo not drawn), the T/C [4] is reported as 102 % of control and the T/C [5] is reported as 100 % of control.
CC(=O)OCC1OC([n+]2cccc(C(N)=O)c2)C(OC(C)=O)C(OC(C)=O)C1OC(C)=O (stereo not drawn) was tested, and the T/C [6] was 100 % of control, the T/C [7] was 101 % of control and the T/C [8] was 100 % of control. The T/C [9] was 103 % of control.
With O=C(O)c1cc(=O)n(CCCCCCn2c(=O)cc(C(=O)O)[nH]c2=O)c(=O)[nH]1 the T/C [4] was 98 % of control, the T/C [5] was 104 % of control and the T/C [10] was 111 % of control.
In the case of CC(C)C/C=C/CCCCCCCCCC(=O)NCC(=O)NC1C(C)OC(Nc2ncnc3nc[nH]c23)C(O)C1O (stereo not drawn), the T/C (dose: 0.5 mg/kg/injection, schedule: Q01DX009 (ip), vehicle: water) is reported as 112 % of control and 123 % of control (2×), the T/C (dose: 1.0 mg/kg/injection, schedule: Q01DX009 (ip), vehicle: water) is reported as 101 % of control and 103 % of control and 121 % of control and the T/C (dose: 2.0 mg/kg/injection, schedule: Q01DX009 (ip), vehicle: water) is reported as 155 % of control. The T/C (dose: 4.0 mg/kg/injection, schedule: Q01DX009 (ip), vehicle: water) was 123 % of control and 87 % of control and the T/C (dose: 8.0 mg/kg/injection, schedule: Q01DX009 (ip), vehicle: water) was 156 % of control and 178 % of control.
For O=S(=O)(O)C1CC(S(=O)(=O)O)NC(S(=O)(=O)O)C1 (stereo not drawn), the T/C [11] was 99 % of control, the T/C (dose: 100.0 mg/kg/injection, schedule: Q01DX005 (ip), vehicle: saline) was 98 % of control and the T/C (dose: 200.0 mg/kg/injection, schedule: Q01DX005 (ip), vehicle: saline) was 94 % of control.
In the case of CCOC(=O)c1ccc(NC(=O)Nc2cccc(NC(C)=O)c2)cc1, the T/C (dose: 15.0 mg/kg/injection, schedule: Q01DX005 (ip), vehicle: Klucel (hydroxypropylcellulose) (HPC)) is reported as 92 % of control, the T/C (dose: 30.0 mg/kg/injection, schedule: Q01DX005 (ip), vehicle: Klucel (hydroxypropylcellulose) (HPC)) is reported as 91 % of control and the T/C [12] is reported as 89 % of control.
With Oc1cccnc1 the T/C [6] was 100 % of control and 103 % of control, the T/C [7] was 99 % of control and 102 % of control and the T/C [8] was 102 % of control and 103 % of control. For the same molecule, the T/C [9] was 103 % of control and 112 % of control, the T/C (dose: 400.0 mg/kg/injection, schedule: Q01DX009 (ip), vehicle: saline) was 100 % of control and 108 % of control and the T/C (dose: 600.0 mg/kg/injection, schedule: Q01DX009 (ip), vehicle: saline) was 102 % of control and 111 % of control.
In the case of Fc1ccc(NC(=S)SCc2ccccc2)cc1, the T/C (dose: 50.0 mg/kg/injection, schedule: Q01DX009 (ip), vehicle: suspension in saline) is reported as 101 % of control, the T/C (dose: 100.0 mg/kg/injection, schedule: Q01DX009 (ip), vehicle: suspension in saline) is reported as 101 % of control and the T/C (dose: 200.0 mg/kg/injection, schedule: Q01DX009 (ip), vehicle: suspension in saline) is reported as 101 % of control.
In the case of O=S(=O)(OCCF)c1cc(Cl)c(Cl)cc1Cl, the T/C (dose: 12.5 mg/kg/injection, schedule: Q01DX005 (ip), vehicle: Klucel (hydroxypropylcellulose) (HPC)) is reported as 98 % of control, the T/C (dose: 25.0 mg/kg/injection, schedule: Q01DX005 (ip), vehicle: Klucel (hydroxypropylcellulose) (HPC)) is reported as 98 % of control and the T/C [1] is reported as 89 % of control.
For CC(NC(=O)OC(C)(C)C)C(=O)NC(C)C(=O)NC(C)C(=O)Nc1ccc([N+](=O)[O-])cc1 (stereo not drawn), the T/C (dose: 50.0 mg/kg/injection, schedule: Q01DX005 (ip), vehicle: saline with Tween-80) was 94 % of control, the T/C (dose: 100.0 mg/kg/injection, schedule: Q01DX005 (ip), vehicle: saline with Tween-80) was 92 % of control and the T/C (dose: 200.0 mg/kg/injection, schedule: Q01DX005 (ip), vehicle: saline with Tween-80) was 87 % of control.
In the case of Nc1ncnc2c1ncn2C1CC(O)C(COC(c2ccccc2)(c2ccccc2)c2ccccc2)O1 (stereo not drawn), the T/C [1] is reported as 95 % of control, the T/C [2] is reported as 91 % of control and the T/C [3] is reported as 86 % of control.
For CCOC(=O)CCCC(NC(=O)c1ccc(N2CCN(c3c(N)nc(N)nc3NC)CC2)cc1)C(=O)OCC (stereo not drawn), the T/C [12] was 91 % of control, the T/C (dose: 120.0 mg/kg/injection, schedule: Q01DX005 (ip), vehicle: Klucel (hydroxypropylcellulose) (HPC)) was 87 % of control and the T/C (dose: 240.0 mg/kg/injection, schedule: Q01DX005 (ip), vehicle: Klucel (hydroxypropylcellulose) (HPC)) was 96 % of control.
CN(C)C=Nc1cccnc1[N+](=O)[O-] was tested, and the T/C (dose: 50.0 mg/kg/injection, schedule: Q01DX009 (ip), vehicle: Klucel (hydroxypropylcellulose) (HPC)) was 108 % of control, the T/C (dose: 100.0 mg/kg/injection, schedule: Q01DX009 (ip), vehicle: Klucel (hydroxypropylcellulose) (HPC)) was 99 % of control and the T/C (dose: 200.0 mg/kg/injection, schedule: Q01DX009 (ip), vehicle: Klucel (hydroxypropylcellulose) (HPC)) was 108 % of control.
For CCOC(=O)C(CCCOC1CCCCO1)(C(=O)CC)c1ccccc1 (stereo not drawn) (tested in a mixture with another compound), the T/C (dose: 50.0 mg/kg/injection, schedule: Q01DX009 (ip), vehicle: acetone) was 111 % of control, the T/C (dose: 100.0 mg/kg/injection, schedule: Q01DX009 (ip), vehicle: acetone) was 103 % of control and the T/C (dose: 200.0 mg/kg/injection, schedule: Q01DX009 (ip), vehicle: acetone) was 107 % of control.
For O=C(Nc1ccc(Cl)cc1)OCCSc1nc2ccccc2s1, the T/C [4] was 102 % of control, the T/C [5] was 105 % of control and the T/C [10] was 93 % of control.
For Nc1nnc2nc(C(C(=O)c3cccc(O)c3)c3nc4nnc(N)n4[nH]c3=O)c(=O)[nH]n12, the T/C (dose: 60.0 mg/kg/injection, schedule: Q01DX005 (ip), vehicle: saline) was 97 % of control, the T/C (dose: 120.0 mg/kg/injection, schedule: Q01DX005 (ip), vehicle: saline) was 106 % of control and the T/C (dose: 240.0 mg/kg/injection, schedule: Q01DX005 (ip), vehicle: saline) was 97 % of control.
For CS(=O)(=O)O/C=C1/CCOC1=O, the T/C (dose: 3.13 mg/kg/injection, schedule: Q01DX009 (ip), vehicle: water) was 107 % of control, the T/C (dose: 6.25 mg/kg/injection, schedule: Q01DX009 (ip), vehicle: water) was 104 % of control and the T/C (dose: 12.5 mg/kg/injection, schedule: Q01DX009 (ip), vehicle: water) was 102 % of control and 108 % of control. The T/C (dose: 25.0 mg/kg/injection, schedule: Q01DX009 (ip), vehicle: water) was 120 % of control.
In the case of Cc1ccc(SSCCN)cc1, the T/C (dose: 12.5 mg/kg/injection, schedule: Q01DX005 (ip), vehicle: saline) is reported as 104 % of control, the T/C (dose: 25.0 mg/kg/injection, schedule: Q01DX005 (ip), vehicle: saline) is reported as 104 % of control and the T/C [11] is reported as 108 % of control and 110 % of control.
O=C1CSC(=O)N1c1cccc(C(F)(F)F)c1 was tested, and the T/C [4] was 104 % of control and the T/C [5] was 97 % of control.
Cc1nc(SCC(=O)O)n[nH]1 was tested, and the T/C [4] was 103 % of control, the T/C [5] was 103 % of control and the T/C [10] was 101 % of control.
